Several values for one entry are separate records, joined by “and”; a condition that tells them apart may be missing. Equal entries are not always repeated. Where two headings read alike, the source gives them in different places.
How the values were obtained:
tachykinin NK1 receptor = target: T1, tachykinin NK1 receptor (Homo sapiens, UniProt P25103); assay: NK1 receptor inhibition study, radioligand binding assay ([3H] Substance P); settings: for inhibition at 0.1 ppm / inhibition at 1 ppm / inhibition at 10 ppm / inhibition at 100 ppm / inhibition at 125 ppm: read-out: Percent inhibition of specific binding to the tachykinin NK1 receptor; for inhibition at 125 ppm: test concentration 125 ppm (Example 7)
T1 construct: expressed in transfected cells; host or cells: CHO cells
Description: The inhibition activity of avenanthramide L versus dihydroavenanthramide D and the structurally related avenanthramides A and D was evaluated in a radioligand binding assay.
The method employed in this study was adapted from the scientific literature so as to maximise reliability and reproducibility. Reference compound L-703,606 was run as an integral part of each experiment, to ensure the validity of the results obtained. The assay was performed under the conditions described in the following respective method.
Source: Human recombinant CHO cells
Incubation time/temperature: 90 minutes at 4° C. Incubation buffer: 20 mM HEPES, pH 7.4, • 1 mM MnCl2 • 0.1% BSA
Ligand: 0.80 nM [3H] Substance P
Non-specific ligand: 10.0 μM L-703,606 oxalate salt (CAS 144425-84-3) Specific binding: 90% Significance criteria: ≥50% of max. stimulation or inhibition Bmax: 1.70 pmol/mg protein
In another experiment, the inhibitory activity of a combination of avenanthramide L and another avenanthramide was evaluated in comparison to both substances alone in the radioligand binding assay as described in Example 1 to investigate a potential synergism.

[1] = Temperature stability at 40° C. of avenanthramide mixture in solution; assay type: physicochemical; settings: for Content after 2 weeks at 40° C. / Content after 4 weeks at 40° C. / Content before treatment: Avn in mixture DragoCalm (glycerin/water); for Content before treatment: HPLC; for Degradation in %: Avn in mixture DragoCalm
From the text: with p=sample 1 and v=sample 2

HSPB2 (=HSP27) = assay: Gene expression in neonatal human epidermal keratinocytes (real-time PCR): HSPB2; assay type: cell-based; settings: 100 μM, 24 hours, nHEK, vs DMSO vehicle; RQ ≥2.0 relevant
Description: (§1) Neonatal human epidermal keratinocytes (nHEK) were cultivated in an EpiLife® medium (Gibco) including an HKGS kit (Gibco) with 5% C02 at 37° C. in accordance with the supplier's instructions.
(§2) The cells were treated for 24 hours, with the test compounds dissolved in DMSO and DMSO alone as the vehicle control. Genomic target expression levels in treated cells were measured using a quantitative Real-Time PCR comparison to vehicle control treatment.
(§3) RNA was isolated using Qiagen's RNeasy® Mini Kit. The total RNA concentrations were measured using Eppendorf's pCuvetteG 1.0 and BioPhotometer, by measuring the absorption at 260 nm. Purity control values such as E260/280 and E260/230 were calculated simultaneously. Reverse transcription was performed using the high-capacity RNA-to-cDNA kit of Applied Biosystems, in accordance with the supplier's instructions. Samples were treated in Biometra's PCR Thermocycler.
(§4) For fast real-time PCR, the cDNA was diluted with RNase-free water, and the TaqMan™ Fast Universal PCR Master Mix of Applied Biosystems was used.
(§5) Quantitative real-time PCR was performed using the StepOnePlus fast real-time PCR instrument by Applied Biosystems. Analysis was conducted using the StepOne software and 2^−ΔΔct method (normalised to endogenous control […] expression).
(§6) For upregulations, RQ values ≥2.0 are considered to be relevant.

BLVRB = assay: Gene expression in neonatal human epidermal keratinocytes (real-time PCR): BLVRB; assay type: cell-based; settings: 100 μM, 24 hours, nHEK, RQ ≥2.0 relevant
Description: as §1, §2, §3, §4, §5
(§7) For upregulations, RQ values ≥2.0 are considered to be relevant. […]

CD44 = assay: Gene expression in neonatal human epidermal keratinocytes (real-time PCR): CD44; assay type: cell-based; settings: 100 μM, 24 hours, nHEK, RQ ≥2.0 relevant
Description: as §1, §2, §3, §4, §5, §7

[2] = Radical-scavenging activity (ABTS assay); assay type: biochemical; settings: absorption at 734 nm
From the text: The ABTS assay measures the relative ability of antioxidants to scavenge the ABTS radical generated in aqueous phase, as compared with a Trolox (water-soluble vitamin E analogue) standard. The green-blue stable radical cationic chromophore 2,2′-azino-bis(3-ethylbenzothiazoline-6-sulphonate) (ABTS^•+) is generated by reaction with the ABTS salt using a strong oxidising agent (for example potassium permanganate or potassium persulphate) and has absorption maxima at 414, 645, 734 and 815 nm. The reduction of the blue-green ABTS radical by hydrogen-donating antioxidants is measured by the suppression of its characteristic long wave absorption spectrum.
With the aid of the ABTS assay, the antioxidative capacity of Avn L and Avn A were evaluated and compared.
2,2′-azino-bis-(3-ethylbenzothiazoline-6-sulphonic acid) (ABTS) was transformed into the blue-green radical cation ABTS^•+ using potassium persulphate. Through the addition of [6]-paradol and alpha-tocopherol, the radical cations were reduced and discoloration was observed, as determined photometrically by absorption at 734 nm. Inhibition of radical formation in the test substance is calculated by the following formula: […]
where • Atest substance is the absorption in the wells with the test substance including [6]-paradol and alpha-tocopherol • Acontrol is the absorption in the wells with no test substance.
Values for IC50 (the concentration at which radical formation is inhibited by 50%) were calculated from the inhibition of radical formation [%] in a series of dilutions of tested samples.

[3] = tested on: Primary human dermal fibroblasts; assay: Cellular antioxidant activity (DCF-DA assay); assay type: cell-based; settings: 24 h incubation, prooxidant challenge 1 mM 1 h; for inhibition at 500 µM: Homo sapiens, Fibroblast, read-out: Inhibition of oxidation
Description: The DCF-DA assay is a fluorometric microplate assay for the detection of oxidative stress by detecting oxidation of 2′,7′-dichlorofluorescein-diacetate (DCF-DA) into the highly fluorescent compound 2′,7′-dichlorofluorescein (DCF) due to the presence of reactive oxygen species (ROS). The DCF-DA assay allows the cellular antioxidant activity of a substance to be determined.
Primary human dermal fibroblasts were seeded in a 96-well microtiter plate at a concentration of 0.5×10^4 cells/well. Cultivation took place at 37° C. and 5% CO2 in DMEM, enriched with 10% foetal calf serum. Confluence was supposed to be around 70% at the time, the incubation with the test substances began. The test substances were applied to the cells at a concentration of 500 μM. After 24 h of incubation, 100 μL H2DCF-DA-solution (10 μM) incl. DAPI (1:1000) was added to all samples (excluded the background-control) and incubated for one hour to deesterify the H2DCF-DA by cellular esterases. The resulting H2DCF was thereby trapped inside the cell. After the incubation, the cells were washed and the prooxidant challenge was set (1 mM, 1 h). The resulting fluorescence was read at λex 504 nm; λem 524 nm. An increased level of ROS (reactive oxygen species) led to an increased amount of fluorescence.
The inhibition of the oxidation in the presence of test substances was calculated according to the following equation: […]
The abbreviations have the following meanings: • RFU test substance: Relative fluorescence units of the wells with test substance and with cells • RFU control: Relative fluorescence units of the wells without test substance, but with cells • RFU without cells: Relative fluorescence units of the wells without test substance and without cells (blank)

[4] = Oxidative stability (Oxipress) of avenanthramides in solution; settings: for Content after treatment / Degradation in %: 5 bars of oxygen at 70° C. for 24 hours; for Content before treatment: HPLC; for ΔE (colour difference, CIELAB): before vs after 5 bars of oxygen at 70° C. for 24 hours
Description: (§8) Stability under exposure to oxygen and temperature was evaluated for dissolved pure avenanthramides in aqueous ethanolic solution, both alone and as an avenanthramide mixture.
(§9) Avenantharmide mixtures used were DragoCalm® (Symrise; INCI Name: Aqua, Glycerin, Avena Sativa Kernel Extract) or DragoCalm® SP (Symrise; INCI Name: Aqua, Glycerin, Pentylene Glycol, Avena Sativa Kernel Extract).
(§10) The liquids were either exposed to 5 bars of oxygen at 70° C. for 24 hours using the Oxipress device or stored for 2 and 4 weeks at 40° C. in a heating cabinet.
(§11) The content of Avns was determined by HPLC, and the colour was measured by colorimetry (Hach Lange Lico 690 instrument) before and after treatment.
(§12) Color can be determined using the CIELAB color model which is based on an opponent color system. CIELAB indicates the color by values on three axes: L*, a*, and b* with dimension L for lightness and a* and b* for the color-opponent dimensions red/green and yellow/blue, based on nonlinearly compressed coordinates. The L* axis extends from black (0) to white (100), the a* axis from green (−a) to red (+a) and the b* axis from blue (−b) to yellow (+b).
(§13) The difference of 2 colors ΔE can be calculated using the following equation:
(§14) ΔEp,v=√{square root over ((Lp*−Lv*)^2+(ap*−av*)^2+bp*−bv*)^2)}
(§15) A difference of ΔE of 0.5-1 can be visually observed by a trained evaluator by naked eye. A difference of 2-4 can be observed visually also by a non-trained evaluator.

HPRT1 (housekeeping) = assay: Gene expression in neonatal human epidermal keratinocytes (real-time PCR): HPRT1; assay type: cell-based; settings: 100 μM, 24 hours
Description: as §1, §2, §3, §4, §5, §7

CRYAB = assay: Gene expression in neonatal human epidermal keratinocytes (real-time PCR): CRYAB; assay type: cell-based; settings: 100 μM, 24 hours, nHEK, vs DMSO vehicle, RQ ≥2.0 relevant
Description: as §1, §2, §3, §4, §5, §6

HSP90AA1 = assay: Gene expression in neonatal human epidermal keratinocytes (real-time PCR): HSP90AA1; assay type: cell-based; settings: 100 μM, 24 hours, nHEK, vs DMSO vehicle, RQ ≥2.0 relevant
Description: as §1, §2, §3, §4, §5, §6

HSP90AB1 = assay: Gene expression in neonatal human epidermal keratinocytes (real-time PCR): HSP90AB1; assay type: cell-based; settings: 100 μM, 24 hours, nHEK, vs DMSO vehicle, RQ ≥2.0 relevant
Description: as §1, §2, §3, §4, §5, §6

[5] = 24 h
Description: as §8, §9, §10, §11, §12, §13, §14, §15

[6] = Avn in mixture DragoCalm SP (glycerin/water)
[7] = single Avn in aqueous ethanolic solution (0.01 wt %)

T1 sequence (P25103 whole entry): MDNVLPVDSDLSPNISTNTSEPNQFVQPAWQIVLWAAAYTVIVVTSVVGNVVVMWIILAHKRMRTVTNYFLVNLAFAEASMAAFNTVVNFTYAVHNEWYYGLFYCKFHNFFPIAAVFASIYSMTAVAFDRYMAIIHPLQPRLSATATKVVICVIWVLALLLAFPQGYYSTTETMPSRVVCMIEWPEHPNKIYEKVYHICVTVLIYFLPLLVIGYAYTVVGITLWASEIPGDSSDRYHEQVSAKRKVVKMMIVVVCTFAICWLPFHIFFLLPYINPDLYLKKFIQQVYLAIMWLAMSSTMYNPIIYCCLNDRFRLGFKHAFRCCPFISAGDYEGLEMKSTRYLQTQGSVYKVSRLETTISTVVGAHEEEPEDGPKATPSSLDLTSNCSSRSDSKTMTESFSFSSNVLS

| SMILES | inhibition at 0.1 ppm (tachykinin NK1 receptor; test concentration 0.1 ppm) [%] | inhibition at 1 ppm (tachykinin NK1 receptor; test concentration 1 ppm) [%] | inhibition at 10 ppm (tachykinin NK1 receptor; test concentration 10 ppm) [%] | inhibition at 100 ppm (tachykinin NK1 receptor; test concentration 100 ppm) [%] | inhibition at 125 ppm (tachykinin NK1 receptor) [%] | Content after 2 weeks at 40° C. [1] [ppm] | Content after 4 weeks at 40° C. [1] [ppm] | Content before treatment [1] [ppm] | Mean antioxidant activity (inhibition of radical formation) ([2]; 5 μM) [%] | Mean antioxidant activity (inhibition of radical formation) ([2]; 10 μM) [%] | inhibition at 500 µM [3] [%] | Content after treatment [4, 6] [ppm] | Degradation in % [4, 6] [%] | Content before treatment [4, 6] [ppm] | Content after treatment [4, 7] [ppm] | Degradation in % [4, 7] [%] | Content before treatment [4, 7] [ppm] | ΔE (colour difference, CIELAB) [4, 7] | Percent inhibition of specific binding to the tachykinin NK1 receptor (tachykinin NK1 receptor; test concentration 0.1 ppm) [%] | Percent inhibition of specific binding to the tachykinin NK1 receptor (tachykinin NK1 receptor; test concentration 1 ppm) [%] | also measured |
| --- | --- | --- | --- | --- | --- | --- | --- | --- | --- | --- | --- | --- | --- | --- | --- | --- | --- | --- | --- | --- | --- |
| O=C(C=Cc1ccc(O)cc1)Nc1ccc(O)cc1C(=O)O [Avn A, N-(4′-hydroxycinnamoyl)-5-hydroxyanthranilic acid] | 3 | 8 | 14 | 21 | 9 | 50 | 50 | 50 | 40 ± 4 | 76 ± 4 | 14 ± 6 | 34 | 3 | 35 | 104 | 0 | 104 | 0.2 | – | – | RQ value, HSPB2 (=HSP27) (HSPB2 (=HSP27)): 1.9; RQ value, BLVRB (BLVRB): no effect; RQ value, CD44 (CD44): no effect; Degradation in % ([4]; Avn in mixture DragoCalm SP (glycerin/water), listed as Avenanthramide A): stable |
| O=C(C=Cc1ccc(O)c(O)c1)Nc1ccc(O)cc1C(=O)O [Avn C, N-(3′-4′-dihydroxycinnamoyl)-5-hydroxyanthranilic acid] | – | – | – | – | – | 16 | 10 | 20 | – | – | – | <1 | 100 | 10 | 89 | 15 | 105 | 2.3 | 9 | 15 | Percent inhibition of specific binding to the tachykinin NK1 receptor (tachykinin NK1 receptor; test concentration 10 ppm): 27%; Percent inhibition of specific binding to the tachykinin NK1 receptor (tachykinin NK1 receptor; test concentration 100 ppm): 94%; Degradation in % ([1]; after 2 weeks at 40° C.): 20%; Degradation in % ([1]; after 4 weeks at 40° C.): 50%; Degradation in % ([4]; Avn in mixture DragoCalm SP (glycerin/water), listed as Avenanthramide C): completely degraded |
| O=C(/C=C/C=C/c1ccc(O)cc1)Nc1ccc(O)cc1C(=O)O [Avn L, 5-hydroxy-2-[(2E,4E)-5-(4-hydroxyphenyl)penta-2,4-dienamido]benzoic acid] | 9 | 15 | 20 | 42 | 37 | 11 | 10 | 11 | 40 ± 4 | 74 ± 4 | 49 ± 7 | 7 | – | 8 | 100 | – | 103 | 0.6 | – | – | Degradation in % ([1]; after 4 weeks at 40° C.): 9%; RQ value, HPRT1 (housekeeping) (HPRT1 (housekeeping); nHEK (Example 4 gene array)): 1.0; RQ value, HPRT1 (housekeeping) (HPRT1 (housekeeping); nHEK, vs DMSO vehicle (Example 3)): 1.0; RQ value, CRYAB (CRYAB): 2.1 and 1.6; RQ value, CRYAB (CRYAB; listed as avenanthramide L): upregulates; RQ value, HSP90AA1 (HSP90AA1): 0.9; RQ value, HSP90AA1 (HSP90AA1; listed as avenanthramide L): no effect; RQ value, HSP90AB1 (HSP90AB1): 0.4 and 0.5; RQ value, HSP90AB1 (HSP90AB1; listed as avenanthramide L): no effect; RQ value, BLVRB (BLVRB; listed as avenanthramide L): upregulates; RQ value, CD44 (CD44; listed as avenanthramide L): upregulates; Mean antioxidant activity (inhibition of radical formation) ([2]; 5 μM, listed as Avenanthramide L): at least 40%; Mean antioxidant activity (inhibition of radical formation) ([2]; 10 μM, listed as avenanthramide L): at least 70%; Inhibition of oxidation ([3]; 500 μM): higher antioxidant activity than avenanthramide A; Degradation in % [5]: 13%; Degradation in % ([5]; 0.01 wt %): 3% |
| O=C(CCc1ccc(O)cc1)Nc1ccccc1C(=O)O [Dihydroavenanthramide D, dihydroavenanthramide D] | – | – | – | – | – | – | – | – | – | – | – | – | – | – | – | – | – | – | 8 | 6 | Percent inhibition of specific binding to the tachykinin NK1 receptor (tachykinin NK1 receptor; test concentration 10 ppm): 8%; Percent inhibition of specific binding to the tachykinin NK1 receptor (tachykinin NK1 receptor; test concentration 100 ppm): 19% |

Source: patent US20230118467A1, “COSMETIC OR PHARMACEUTICAL USE OF AVENANTHRAMIDE L” (priority 2020, published 2023)
